This note sets out measurements from patent US20230265044A1, “SALT OF DEMETHYL TRAMADOL AND USE THEREOF” (priority 2020, published 2023).

The nature of data set [1]: Determination on hygroscopicity (80% RH, 24 h). It counts as physicochemical. On the procedure:
Test process: a weighing bottle was taken, put into a dryer with 80% RH saturated solution, balanced for 24 h, taken out, and weighed as m1; a sample was taken, spread into the weighing bottle with a thickness about 1 mm, and weighed as m2; and then the weighing bottle was put into the dryer with 80% RH saturated solution, balanced for 24 h, and weighed as m3.
Calculation formula: hygroscopicity=(m3−m2)/(m2−m1)*100%

Data set [2] can be described thus: Determination on solubility in water (HPLC, stirred 24 hr). It counts as physicochemical. The note with it: for solubility: in water, stirred for 24 hr; for approximate solubility: water needed to dissolve 1 g: per 1 g of sample, converted from solubility. On the procedure:
1. chromatographic column: Agilent Pursuit C18, 3um, 4.6*150 mm
2. Mobile phase: 0.1% trifluoroacetic acid: acetonitrile=20: 80, flow rate: 1.0 mL/min, wavelength: 215 nm, column temperature: 35° C., injection volume: 10 μl;
3. Mobile phase preparation process:
1.0 mL of trifluoroacetic acid was added into 1000 mL of water, mixed well, and ultrasonicated;
4. Sample preparation process
About 10 mg of the sample to be tested was weighed and added into 1 mL of water, stirred for 24 hr, and centrifuged. The supernatant was taken as the sample for testing solubility. 10 mg of demethyl tramadol palmitate with the same structure as the sample to be tested was weighed and placed in a 100 mL measuring flask, 80% aqueous methanol solution was added to dissolve and dilute the demethyl tramadol palmitate to the scale, which was used as the corresponding reference solution.

In brackets after ≈: the same amount, converted by molar mass.

On to `CN(C)CC1CCCCC1(O)c1cccc(O)c1` (racemic) [Example 2, Demethyl Tramadol Palmitate Monosalt], for which the hygroscopicity in data set [1] turned out to be 6.3%. Further, in data set [2], the solubility came out at 0.7 mg/mL and the “approximate solubility: water needed to dissolve 1 g” value turned out to be 1428.6 mL.
For `CN(C)C[C@H]1CCCC[C@]1(O)c1cccc(O)c1` (racemic) [racemic demethyl tramadol free base, (±)-(1RS, 2RS)-2-[(N,N dimethylamino)methylene]-1-hydroxy-cyclohexyl phenol], in data set [2], the solubility amounted to 1.4 mg/mL (≈ 5.61 mM) and the “approximate solubility: water needed to dissolve 1 g” value is reported as 714.3 mL.
For `CN(C)C[C@H]1CCCC[C@]1(O)c1cccc(O)c1.Cl` (racemic) [racemic demethyl tramadol hydrochloride], in that order: “higher than 200 mg/mL” and not above 5 mL.
In the same order, the values of racemic demethyl tramadol acetate are “higher than 50 mg/mL” and not above 20 mL.
